The text below walks through data of patent publication US8058228B2, “Leptin peptide antagonists” (Boston Biomedical Research Institute, priority 2004, dated 2011).

“Also recorded” adds a separate entry of the source.

Experiment [1] deals with OB-R. The experiment in a line: LIF secretion by rabbit endometrial cell cultures (ELISA). It counts as cell-based. The method, then:
Rabbit endometrial cells (5×10^5 cells/well) were cultured for 5-9 days in DMEM-MCDB105 (3:1) medium containing 10% fetal bovine serum (FBS), 5 μg/ml insulin, 1% amphopthericin B, 100 μg/ml streptomycin and 100 U/ml penicillin until confluent layers were obtained. The cells were washed twice with 100 mM phosphate saline buffer (PBS) −2% BSA (w/v), pH 7.2 and cultured for an additional 2 days in the same medium but without FBS (basal medium). This procedure was performed to reduce any effects of cytokines from FBS on the phosphorylation rate of Stat3 as well as the expression of other cytokines and their receptors. Cells were washed as described before and cultured in basal medium containing leptin (0-10 nM), OB-R antibody (1-20 μg/ml) and/or LPA-2 peptides (0-300 nM). Cultures were stopped at 24 h and the cells were used for immunocytochemistry, binding studies and western blot analysis. The conditioned media were collected, lyophilized and stored at −80° C. for ELISA determinations. Duplicate wells were run for each treatment and the experiments repeated at least three times with different cell preparations from different rabbits. Controls were the same cellular preparations cultured in basal medium containing non-specific goat IgGs and LPA-2Sc.
IL-1β from rabbits and humans have sequence differences, but no data is available concerning the sequence of rabbit LIF. In addition, there are no commercial kits for measuring rabbit IL-1β or LIF. […] Conditioned media (n=3 per treatment) from rESC and rEEC cultured in the experimental conditions described above were used to quantify the secretion of LIF by ELISA (LIF-Quantikine®, R&D Systems). Standards, controls, and samples were assayed in duplicate. The intra- and interassay coefficients of variations were between 0.7-12% and 3-7%, respectively.

Experiment [2] concerns OB-R. In words: Competitive binding of 125I-human leptin to OB-R in rabbit endometrial cell lysates. How it is done:
^125I-human leptin served as ligand and LPA-2 and LPA-2Sc as competitors for the binding to OB-R in cellular extracts. All compounds were diluted in assay buffer (50 mM Tris and 100 mM NaCl, pH 8.5) to promote proper re-folding. Each assay tube contained 50 μl of cellular lysate (100 μg protein from 10^6 cells cultured for two days in basal medium), 50 μl of ^125I-human leptin (100.000 cpm), and 50 μl of LPAs (providing 10^−5-10^−14 M/tube). The tubes were incubated for 24 h at room temperature. Then, 250 μl of 1% BSA (w/v) and 500 μl of 20% polyethylene glycol (w/v) in PBS were added and the tubes were incubated for an additional 12-h period at 4° C. The tubes were centrifuged at 12.000 g for 15 min at 4° C. After careful aspiration of supernatant and complete drying of the tube-walls with filter paper, ^125I-human leptin binding in the precipitates was measured (Beckman 5000, counter). The binding of ^125I-leptin to OB-R in absence of LPAs was set at 100%, and LPA competitive binding values were expressed as percentages of total cpm. Affinity binding constants for LPAs were calculated from the competition curves.

Experiment [3] has as its system OB-R. The experiment in a line: OB-R expression by rabbit endometrial cells (immunocytochemistry, Western blot). In kind it is cell-based. Conditions: cultures of rESC or rEEC. How it is done:
Rabbit endometrial cells (5×10^5 cells/well) were cultured for 5-9 days in DMEM-MCDB105 (3:1) medium containing 10% fetal bovine serum (FBS), 5 μg/ml insulin, 1% amphopthericin B, 100 μg/ml streptomycin and 100 U/ml penicillin until confluent layers were obtained. The cells were washed twice with 100 mM phosphate saline buffer (PBS) −2% BSA (w/v), pH 7.2 and cultured for an additional 2 days in the same medium but without FBS (basal medium). This procedure was performed to reduce any effects of cytokines from FBS on the phosphorylation rate of Stat3 as well as the expression of other cytokines and their receptors. […]
The expression of OB-R was assessed by incubation of rEC for 1 h at room temperature with goat antibodies directed towards the amino terminal ends of human OB-R (R&D system) diluted 1:80 in buffer A.
After culture in the presence of leptin, LPAs or antibodies, the endometrial cells were washed with ice-cold PBS and lysed by homogenization on ice with lysis buffer [[…] Tris, pH 7.4, containing […] NaCl, 2 mM EDTA, 10% glycerol, 50 mM β-glycerophosphate, […] NaF, 1% Nonidet P-40, 2 mM phenyl-methylsulfonyl fluoride, 2 mM sodium orthovanadate, 100 μM antipain, 0.1 mg/ml trypsin inhibitor and protease cocktail inhibitor 1:50 (Sigma)]. […] Protein concentrations were determined using the Bradford protein assay (BioRad Laboratories Inc., Hercules, Calif.). […]

With “SRNVIQISNDLENLRDLLHVLAFSKS [LPA-2, 26 amino acid peptide, residues 70-95 of helix III of the human leptin molecule; leptin peptide antagonist]”, the “effect on leptin induction of LIF secretion” value with OB-R [1] (rEEC, leptin 3 nM with LPA-2 3 to 300 nM, OB-R antibody 20 μg/ml) was “significantly inhibited the leptin (3 nM) induction of LIF secretion”. Also, the “effect on leptin-induced LIF secretion at the higher leptin dose” value in the experiment with OB-R [1] (rEEC, leptin 10 nM, equimolar LPA-2 (10 nM)) is “effectively inhibited; also recorded: completely inhibited”. The “competition with 125I-leptin for binding to OB-R” value in the experiment with OB-R [2] (cellular lysates of rabbit endometrial cells) is recorded as “displaced”. Further, in the experiment on OB-R [2] (competition with 125I-leptin, OB-R expressed by rabbit endometrial cells (rEEC and rESC), protein extracts), the Ki is about 60 pM. The “expression of OB-R” value in the experiment on OB-R [3] is on record as “did not affect the expression of OB-R”.
For the substance “leptin: human recombinant leptin (R&D Systems), OB-R ligand used as stimulus”, the “LIF secretion after leptin” value in the experiment with OB-R [1] (rEEC and rESC, more evident in rEEC) is reported as “increased LIF secretion in a dose-dependent manner”. For the same substance, the “expression of OB-R” value with OB-R [3] was “did not affect the expression of OB-R”.
